In patent US20030044413A1, “Methods of limiting apoptosis of cells” (Regents of the University of Minnesota, priority 1998, published 2003):
Several values for one entry are separate records, joined by “and”; a condition that tells them apart may be missing. Equal entries are not always repeated. Entries after “also recorded” stand apart in the source; their conditions may differ.

Experiments:
astrocytes = assay: Unconjugated bilirubin-induced apoptosis in astrocytes; type: cell-based, rat; conditions: for apoptosis, increase over control values: 4 hours
[1] = test system: isolated rat liver mitochondria; assay: MPT spectrophotometric assay (mitochondrial swelling); conditions: for effect on DCA-induced MPT / mitochondrial swelling: preincubation (500 μM bile acid or cyclosporine A) before DCA
Procedure: Isolation of mitochondria and MPT assays. Low calcium liver mitochondria were isolated from male 200-250 g Sprague-Dawley rats by density gradient centrifugation as previously published (Botla et al., J. Pharmacol. Exp. Ther., 272, 930-938 (1995); Walajtys-Rhode et al., J. Biol. Chem., 267, 370-379 (1992); and Sokol et al., Gastroenterology, 99, 1061-1071 (1990)). The mitochondrial fraction was resuspended in 30 ml of wash buffer containing 0.1 M KCl, 5 mM 3-(N-morpholino)-propane sulfonic acid (MOPS), and 1 mM EGTA, at pH 7.4 and centrifuged at 7,000×g for 10 min at 4° C. A final wash was carried out in chelex-100-treated buffer (Bio-Rad Laboratories, Hercules, Calif.) containing no EGTA. The resulting pellet was suspended in 4 ml of chelex--100-treated buffer containing 125 mM sucrose, 5 mM HEPES, 50 mM KCl and 2 mM KH2PO4. The usual yield of mitochondria was approximately 25 mg of protein per gram of liver tissue. Mitochondrial purity was established as previously described (Botla et al., J. Pharmacol. Exp. Ther., 272, 930-938 (1995)). Protein concentrations were determined using the Bio-Rad protein assay kit as specified by the manufacturer.
MPT was measured spectrophotometrically as described previously (Botla et al., J. Pharmacol. Exp. Ther., 272, 930-938 (1995); Pastorino et al., J. Biol. Chem., 268, 13791-13798 (1993)), during 10 min incubations at 25° C. using mitochondria (1 mg of protein/ml) suspended in 3 ml of a chelex-100-treated buffer containing 0.1 M NaCl, 10 mM MOPS, pH 7.4. Swelling was monitored at 540 nm in a Beckman DU 64 spectrophotometer. Basal values of mitochondria absorbance were measured for 5 min, and the optical density was monitored another 5 min after addition of 200 μM DCA or 80 μM phenylarsine oxide (PhAsO; Sigma Chemical Co.). For coincubation studies, mitochondria were preincubated with 500 μM UDCA or hyodeoxycholic acid for 5 min at 25° C. prior to the assay.
Spectrophotometric and Fluorimetric Assays of MPT. The MPT was assessed using a spectrophotometric assay measuring high amplitude rapid changes in mitochondrial volume, and a fluorimetric assay quantitating the release of calcein from calcein-loaded mitochondria. The MPT was measured spectrophotometrically as previously described (Pastorino, J. Biol. Chem., 268, 13791-13798 (1993); Botla et al., J. Pharmacol. Exp. Ther., 272, 930-938 (1995)). Briefly, mitochondria (3 mg protein) were incubated in 3 ml of chelex-100-treated respiration buffer (0.1 M NaCl, 10 mM MOPS, pH 7.4) for 10 min at 25° C. and monitored at 540 nm in a Beckman DU 64 spectrophotometer. Basal values of mitochondrial absorbance were measured for 5 min, and the optical density was monitored for an additional 5 min after addition of increasing concentrations of DCA (50-200 μM) or 80 μM phenylarsine oxide (PhAsO; Sigma Chemical Co., St. Louis, Mo.). For the coincubation studies, mitochondria were preincubated with UDCA (100-500 μM), or 500 μM hyodeoxycholic acid (HDCA; Sigma Chemical Co.) for 5 min at 25° C. prior to initiation of the assay.
Measurement of MPT and determination of cytochrome c content in supernatants and mitochondrial pellets after MPT. The MPT was assessed using a spectrophotometric assay measuring high amplitude rapid changes in mitochondria volume. Mitochondria (1 mg protein) were incubated in 1 ml of chelex-100-treated respiration buffer (0.1 M NaCl, 10 mM MOPS, pH 7.4) for 10 min at 25° C. and swelling was monitored at 540 nm in a Beckman DU 64 spectrophotometer. Malate and glutamate (1 mM) were added to initiate respiration, and 3 min later rotenone (5 μM), an inhibitor of complex I of the respiratory chain, was also added to the supension. Basal values of mitochondria absorbance were measured for 5 min, and the optical density was monitored for an additional 5 min after addition 200 μM DCA or 80 μM phenylarsine oxide (PhAsO; Sigma Chemical Co.). […]

rat primary hepatocytes = assay: FACS analysis of ΔΨm and ROS, rat primary hepatocytes; type: cell-based; conditions: 1% ETOH, 4 h, hepatocytes
Procedure: A ΔΨm and ROS measurement. ΔΨm and ROS production were measured by FACScan (Becton Dickinson) analysis. Freshly isolated rat hepatocytes were cultured for 3 h as described above and then incubated with William's E medium supplemented with either 100 μM DCA, 100 μM UDCA, equal molar amounts of both, or no bile acid (control), for 6 h. Rat hepatocytes were also cultured with either 1% ethanol, 100 μM UDCA, ethanol+UDCA, or no addition (control) for 4 h. HuH-7 cells, Hep G2 cells, and human osteogenic sarcoma Saos-2 cells were incubated with TGF-β1, anti-Fas antibody or okadaic acid, respectively, for 48 h under the same conditions as outlined above. For combination studies, cells were pretreated with UDCA or hyodeoxycholic acid for 60 min prior to addition of DCA, ethanol, TGF-β1, anti-Fas antibody or okadaic acid. Aliquots of 1.0×10^6 cells were incubated for 15 min at 37° C. with 50 nM 3,3′-dihexyloxacarbocyanine iodide [DiOC6(3)], 2 μM dihydroethidium (HE), or 5 μM 2′,7′-dichlorofluorescin diacetate (H2DCFDA; Molecular Probes, Inc. Eugene, Oreg.) and analyzed by cytofluorometry (Cathcart et al., Anal. Biochem., 134, 111-116 (1983); Zamzami et al., J. Exp. Med., 181, 1661-1672 (1 995); Carter et al., J. Leukocyte Biol., 55, 253-258 (1994)).
Rat primary hepatocytes were incubated with 100 μM DCA and 1% ETOH for 6 h and 4 h, respectively; HuH-7 cells with 1 nM TGF-β1 for 48 h; Hep G2 cells with 0.5 μg/ml anti-Fas antibody (CH-11) for 48 h, and Saos-2 cells with 50 nM okadaic acid (OA) for 48 h. In each combination group, cells were pretreated with 100 μM UDCA alone for 60 min prior to addition of the inducer. Aliquots of 1.0×10^6 cells were incubated for 15 min at 37° C. with 5 μM 2′,7′-dichlorofluorescin diacetate (H2DCFDA) and analyzed by cytofluorometry.

primary rat hepatocytes = assay: Ethanol-induced apoptosis, Hoechst staining, primary rat hepatocytes; type: cell-based; conditions: 0.5% ethanol
Procedure: (§1) Incubation of cells with ethanol, TGF-β1, anti-Fas antibody or okadaic acid. Freshly isolated rat hepatocytes were cultured for 3 h as described above and then incubated with William's E medium supplemented with either 0.5% ethanol, 50 μM UDCA, ethanol plus UDCA, or no addition (control) for 2 h and 4 h. HuH-7 cells were incubated with Dulbecco's medium supplemented with either 1 nM TGF-β1 (R & D Systems, Minneapolis, Minn.), 100 μM UDCA, TGF-β1+UDCA, or no addition (control) for 24 h, 48 h, and 72 h. Hep G2 cells were incubated with Dulbecco's medium supplemented with either 0.5 μg/ml of anti-Fas antibody CH-11 (Upstate Biotechnology, Inc., Lake Placid, N.Y.), 100 μM UDCA, CH-11+UDCA, or no addition for 48 h. Both HuH-7 cells and human osteogenic sarcoma Saos-2 cells were cultured in Dulbecco's medium supplemented with either 50 nM okadaic acid (Boehringer Mannheim Biochemicals, Inc, Indianapolis, Ind.), 100 μM UDCA, okadaic acid+UDCA, or no addition for 48 h. In all the combination groups, cells were pretreated with UDCA alone for 60 min prior to addition of ethanol, TGF-β1, anti-Fas antibody or okadaic acid.
(§2) Morphological evaluation of apoptosis. Morphology was performed as described previously (Oberhammer et al., Proc. Natl. Acad. Sci. USA 89, 5408-5412 (1992)). Briefly, after fixation (with 4% formaldehyde in PBS, pH 7.4, for 10 min at room temperature), the cells were incubated with Hoechst dye 33258 (Sigma Chemical Co.) at 5 μg/ml in PBS for 5 min, washed with PBS and mounted with PBS:glycerol (3:1, v/v). Fluorescence was visualized with a Zeiss standard fluorescence microscope (Carl Zeiss, Inc., Thornwood, N.Y.). Photographs were taken with Kodak Ektar-1000 film (Eastman Kodak Co.). Stained nuclei were scored by blind analysis and categorized according to the condensation and staining characteristics of chromatin. Normal nuclei were identified as noncondensed chromatin dispersed over the entire nucleus. Apoptotic nuclei were identified by condensed chromatin, contiguous to the nuclear membrane, as well as nuclear fragmentation of condensed chromatin. Three fields per dish of approximately 500 nuclei were counted; mean values are expressed as the percent of apoptotic nuclei.

HuH-7 cells = assay: TGF-β1-induced apoptosis, Hoechst staining, HuH-7 cells; type: cell-based, human; conditions: 1 nM TGF-β1, 100 μM bile acid, 72 h
Procedure: as §1
HuH-7 cells were treated with 1 nM TGF-β1, 100 μM of either hyodeoxycholic acid, taurocholic acid, tauroursodeoxycholic acid (Sigma Chemical Co.) or glycoursodeoxycholic acid (Steraloids Inc., Wilton, N.H.), or a combination of TGF-β1 plus the individual bile acids for 72 h. HeLa and Cos-7 cells were incubated with 50 nM okadaic acid, 100 μM of either tauroursodeoxycholic acid or glycoursodeoxycholic acid, or a combination of okadaic acid plus the individual bile acids for 24 h. In the combination groups, cells were pretreated with the bile acid alone for 60 min prior to incuation with TGF-β1 or okadaic acid. In all studies, the medium was gently removed at the indicated times and scored for nonviable cells. The attached cells were fixed for morphologic evaluation of apoptosis.
as §2, with “Morphology was performed as described previously (Oberhammer et al., Proc. Natl. Acad. Sci. USA 89, 5408-5412 (1992)). Briefly, after fixation (with 4% formaldehyde in PBS, pH 7.4, for 10 min at room temperature), the cells were incubated with Hoechst dye 33258 (Sigma Chemical Co.) at 5 μg/ml in PBS for 5 min, washed with PBS and mounted with PBS:glycerol (3:1, v/v).” left out

cytochrome c = assay: Cytochrome c release from isolated mitochondria after MPT; design: species or system rat; conditions: added to isolated mitochondria before DCA
Procedure: Mitochondria isolation. […] In short, animals were sacrificed by exsanguination under ether anesthesia and the livers removed and rinsed in normal saline. Approximately 10 g of minced liver was homogenized at a speed of 800 rpm using 6 complete up and down strokes with a speed controlled mechanical skill drill and a teflon pestle (Tri-R Model K41, Tri-R Instruments, Rockville Center, N.Y.) in an ice-cold solution of 70 mM sucrose, 220 mM mannitol, 1 mM EGTA and 10 mM HEPES, pH 7.4 as a 10% (wt/vol) homogenate. The homogenate was centrifuged at 600×g for 10 min at 4° C. in an SS-34 rotor in a Sorvall RC5C centrifuge (Sorvall Instruments, Newtown, Conn.), and the postnuclear supernatant was centrifuged at 7,000×g for 10 min at 4° C. […] The pellet was resuspended in 2 mL of homogenate buffer, and 1 mL of the resuspended pellet was carefully layered onto a 35-mL self-generating gradient containing 0.25 M sucrose, 1 mM EGTA and percoll (Pharmacia Fine Chemicals, Piscataway, N.J.) (75:25, vol/vol). The mitochondria were purified by centrifugation at 43,000×g for 30 min at 4° C. using a Beckman Ti60 rotor and a Beckman ultracentrifuge model L8-55 (Beckman Instruments, Inc., Schaumburg, Ill.). The clear supernatant solution removed and the lower turbid layer was resuspended in 30 mL of wash buffer containing 0.1 M KCl, 5 mM 3-(N-morpholino)-propane sulfonic acid (MOPS), and 1 mM EGTA, at pH 7.4 and centrifuged at 7,000×g for 10 min at 4° C. The resulting mitochondria pellet was washed in wash buffer two times. A final wash was carried out in chelex-100-treated buffer (Bio-Rad Laboratories, Richmond, Va.; 200-400 mesh, potassium form) without EGTA. The pellet was suspended in 4 mL of chelex-100-treated resuspension buffer containing 125 mM sucrose, 50 mM KCl, 5 mM HEPES, and 2 mM KH2PO4. The usual yield of mitochondria was approximately 25 mg of protein per gram of liver tissue. Mitochondria were used for experiments within 3 h of isolation. Aliquots were removed for examining the purity of the mitochondria preparation.
Measurement of MPT and determination of cytochrome c content in supernatants and mitochondrial pellets after MPT. The MPT was assessed using a spectrophotometric assay measuring high amplitude rapid changes in mitochondria volume. Mitochondria (1 mg protein) were incubated in 1 ml of chelex-100-treated respiration buffer (0.1 M NaCl, 10 mM MOPS, pH 7.4) for 10 min at 25° C. and swelling was monitored at 540 nm in a Beckman DU 64 spectrophotometer. […] Basal values of mitochondria absorbance were measured for 5 min, and the optical density was monitored for an additional 5 min after addition 200 μM DCA or 80 μM phenylarsine oxide (PhAsO; Sigma Chemical Co.). […]

stroke injury = assay: Stroke injury in a rat model; type: in vivo; conditions: preliminary results

C=CC1=C(C)/C(=C/c2[nH]c(Cc3[nH]c(/C=C4\NC(=O)C(C)=C4C=C)c(C)c3CCC(=O)O)c(CCC(=O)O)c2C)NC1=O [UCB, unconjugated bilirubin]
apoptosis, increase over control values (astrocytes; 17 μM UCB): about 6 fold
apoptosis, increase over control values (astrocytes; 85.5 μM UCB): about 11 fold
percentage of apoptotic cells (astrocytes; 85.5 μM UCB, 22 hours): about 48%
cell viability (astrocytes; UCB treatment): concentration and time dependent decrease in cell viability

CCO [ethanol]
mitochondrial swelling with the substance alone ([1]; substance alone added to isolated mitochondria): did not induce mitochondria swelling
Peroxides Production (%) Inducer (rat primary hepatocytes): 17.9 ± 5.4%
increase in apoptosis over control values (primary rat hepatocytes; 2 h): 10 fold
increase in apoptosis (primary rat hepatocytes; time not stated (summary)): 12 fold

C[C@H](CCC(=O)NCC(=O)O)[C@H]1CC[C@H]2[C@@H]3[C@@H](O)C[C@@H]4C[C@H](O)CC[C@]4(C)[C@H]3CC[C@]12C [glycoursodeoxycholic acid]
effect on DCA-induced MPT / mitochondrial swelling [1]: Inhibition of deoxycholic acid-induced MPT
decrease of TGF-β1 apoptosis (HuH-7 cells): 37.5±5.1%
effect on deoxycholic acid-induced cytochrome c release (cytochrome c): Inhibition of deoxycholic acid-induced MPT and cytochrome c release were also observed

C[C@H](CCC(=O)NCCS(=O)(=O)O)[C@H]1CC[C@H]2[C@@H]3[C@H](O)C[C@@H]4C[C@H](O)CC[C@]4(C)[C@H]3C[C@H](O)[C@]12C [taurocholic acid]
inhibition of TGF-β1-induced apoptosis (HuH-7 cells): did not; also recorded: neither hyodeoxycholic acid nor taurocholic acid showed inhibition

C[C@H](CCC(=O)NCCS(=O)(=O)O)[C@H]1CC[C@H]2[C@@H]3[C@@H](O)C[C@@H]4C[C@H](O)CC[C@]4(C)[C@H]3CC[C@]12C [tauroursodeoxycholic acid]
effect on DCA-induced MPT / mitochondrial swelling [1]: Inhibition of deoxycholic acid-induced MPT
decrease of TGF-β1 apoptosis (HuH-7 cells): 45.8±7.9%
mitochondria viability following a stroke injury (stroke injury): improvement in mitochondria viability
decrease of the area of stroke damage (stroke injury; pretreatment, compared to control animals): up to 50%
effect on deoxycholic acid-induced cytochrome c release (cytochrome c): Inhibition of deoxycholic acid-induced MPT and cytochrome c release were also observed

cyclosporine A
inhibition of DCA-induced MPT (mitochondrial swelling) ([1]; 200 μM DCA, pretreatment 500 μM UDCA or 5 μM cyclosporine A): > 45% and 45.8±5.4%
effect on DCA-induced MPT / mitochondrial swelling [1]: reduced deoxycholic acid-induced mitochondria swelling
